# How the values were obtained:
# iNOS = iNOS promoter luciferase reporter assay in hepatocytes; assay type: cell-based; details: BAY 11-7082 10 μM 1 hr prior to CO
# Procedure: In some experiments, gene transfer of an IκBα superrepressor (Hellerbrand et al., Hepatology 27:1285-1295 (1998)) or β-galactosidase using adenoviral vectors (10 pfu/cell) was performed 12 hours prior to TNF-α/ActD treatment. NF-κB activation was evaluated using a luciferase reporter assay as described in Chow et al. (J. Biol. Chem. 274: 10689-10692 (1999)). Briefly, hepatocytes were co-transfected with NF-κB reporter constructs (pGL3-kappaβ luciferase, 100 ng/well; and pIEP-Lac-z 0.5 μg/well) using Lipofectin™ (Invitrogen, Carlsbad, Calif.) as instructed by the manufacturer. Evaluation of iNOS expression was performed using a luciferase reporter assay as described in Lowenstein et al. (Proc. Natl. Acad. Sci. U.S.A 90: 9730-9734 (1993)). Briefly, hepatocytes were co-transfected with iNOS promoter reporter constructs (pXP2; 1 μg/well) and pIEP-LacZ (0.5 μg/well) as described above.
# Hepatocytes were transfected with plasmids as described above and treated with various stimuli 24 hours after transfection. Luciferase activity (reported as arbitrary units; A.U.) was assayed 6 hours after initiation of treatment, using a luciferase assay kit (Promega, Madison, Wis.) and a Berthold Luminometer. Results were corrected for transfection efficiency and protein concentration. […]
# [1] = test system: mouse primary hepatocytes; test: TNF-α/ActD-induced cell death, crystal violet viability; assay type: cell-based; details: BAY 11-7082 (10 μM) to inhibit NF-κB activation
# [2] = test system: TNF-α/D-gal-induced liver injury
# Procedure: Male C57BL/6J ([…], Bar Harbor, Me.), 8-12-wk-old inos^−/− mice and wild type littermates (bred/maintained at the University of Pittsburgh) were used for in vivo experiments.
# 10 mg/kg subcutaneously (s.c.), Alexis Biochem., San Diego, Calif.) or cobalt protoporphyrin (CoPP, 5 mg/kg, intraperitoneally (i.p.), Frontier Scientific, Logan, Utah). […] Where indicated, acetaminophen (Sigma Chem. Co.; St Louis, Mo.) was administered (500 mg/kg, i.p.).
# A CO analyzer (Interscan, Chatsworth, Calif.) was used to measure CO levels continuously in the chamber. CO concentrations were maintained at 250 ppm at all times. Mice were placed in the exposure chamber as required.
# Whether HO-1 is protective against acute hepatic failure was investigated. Cobalt protoporphyrin (5 mg/kg, i.p.) was administered to male C57BL/6J mice. Twenty-four hours later, TNF-α/D-gal (0.3 μg/8 mg/mouse, i.p., respectively) was administered to the mice. Serum alanine aminotransferase (ALT) levels in the mice were measured 8 hours after administration of TNF-α/D-gal.
# After receiving TNF-α/D-gal, mice were returned to the CO exposure chamber and their serum was analyzed for ALT levels 6-8 hr later.
# To generate the data presented in FIGS. 11A-11H, liver samples from mice treated with TNF-α/D-gal in the presence and absence of CO (250 ppm) for 8 hr were sectioned and stained for hematoxylin & eosin (H&E), activated caspase 3 (as indicated by an increase in red intensity), and for TUNEL positive cells (as demarcated by the increased green cellular staining; a marker of cell death). Nuclei stained blue.
# L-NIL was administered 2 hr prior to CO. CO-treated animals were then pre-treated (250 ppm) for 1 hr prior to TNF-α/D-gal.
# VP was selectively designed to deliver NO directly to the liver. One hour after the initial VP dose, the animals were exposed to CO for 1 hr prior to administration of TNF-α/D-gal (see above). Serum ALT levels were determined 6-8 hr later.
# These mice and inos^−/− mice were then administered CoPP. L-NIL was maintained in the water throughout the experiment. Control and inos^−/− mice received normal drinking water. Twenty-four hr after administration of CoPP, TNF-α/D-gal was administered and serum ALT determined 6-8 hr later.
# HO-1 = test: Liver HO-1 expression (immunoblot); assay type: in vivo, mice; details: L-NIL 5 mg/kg i.p., room air
# Procedure: Western blot analysis was performed on primary hepatocytes in culture or from liver homogenates with antibodies to iNOS (Transduction Laboratories, Lexington, Ky.; 1:1000), HO-1 (Calbiochem; 1:2000), or β-actin (Sigma Chemical; 1:5000). Thirty μg protein in cell culture experiments or 100 μg protein from liver homogenates was loaded per well for SDS-PAGE.
# To assess the role of iNOS on TNF-α/D-gal-induced HO-1 expression in the liver (data presented in FIG. 16), mice were administered L-NIL (5 mg/kg, i.p.) 2 hr prior to pre-treatment with CO (250 ppm) and every 2 hr thereafter. Control mice received L-NIL and remained in room air.
# [3] = test system: mouse primary hepatocytes; test: TNF-α/ActD-induced cell death, crystal violet viability; assay type: cell-based
# Procedure: Mouse primary hepatocytes were harvested from C57BL/6J, mkk3^−/−, inos^−/− (in-house breeding colony), or hmox-1^−/− mice as described in Kim et al. (J. Biol. Chem. 272: 1402-1411 (1997)). Hepatocytes were used on days 1-3 following harvest.
# Cells were treated with TNF-α (10 ng/ml) and actinomycin-D (Act-D; 200 ng/ml, Sigma Chemical Co. St. Louis, Mo.) to induce cell death.
# Whether exogenous CO is protective against hepatocyte cell death in vitro was investigated. To generate the data presented in FIG. 2, mouse hepatocytes were pre-incubated with CO (250 ppm) for 1 hr (standard pre-treatment time for all experiments) prior to addition of TNF-α/Act-D (10 ng/200 ng/ml respectively). Cells were maintained in CO for the duration of the experiment. Twelve hours afterward, cell viability was measured as described in Kim et al. (J. Biol. Chem. 272: 1402-1411 (1997)). Adenoviral experiments involved incubating hepatocytes overnight with 10 pfu/cell of the adenovirus prior to addition of TNF-α/ActD, and then assaying for viability using crystal violet. The roles of signaling molecules guanylyl cyclase and p38 MAPK were also investigated in this model. To evaluate the role of cGMP and confirm the role of NF-κB, hepatocytes were treated separately with the soluble guanylate cyclase (sGC) inhibitor 1H-[1,2,4]Oxadiazolo[4,3-a]quinoxalin-1-one (ODQ; Calbiochem; 2-10 μM) or the NF-κB inhibitor BAY 11-7082, (10 μM). Cells were treated with the inhibitors for 1 hour prior to the 1 hour pretreatment with CO. TNF-α/ActD was then added and the cells tested for viability 12 hours later. NF-κB activation was critical to the protection elicited by CO while cGMP was not involved.
# To generate the data presented in FIG. 9, mouse hepatocytes were isolated from inos^−/− or from wild type C57BL/6J mice, which were then pre-treated for 1 hr with L-NIO (1 mM) to inhibit iNOS prior to CO administration. Those groups exposed to CO received a one-hour pretreatment prior to addition of TNF-α/ActD and were then returned to CO exposure.
# To generate the data presented in FIG. 19, mouse hepatocytes were isolated from HO-1 null mice (hmox-1^−/−) and wild type (C57BL/6J) littermates, pretreated for 1 hour with CO (250 ppm), and treated with TNF-α/ActD. Viability was assayed as described above.
# To generate the data presented in FIG. 20, mouse hepatocytes were isolated from HO-1 null mice (hmox-1^−/−) and wild type (C57BL/6J) littermates, pretreated with the NO donor SNAP (500 μM), and then treated with TNF-α/ActD 1 hour later.
# [4] = SNAP 500 μM, 1 hour before TNF-α/ActD
compound,measurement,setting,value
"Cc1ccc(S(=O)(=O)/C=C/C#N)cc1 [BAY 11-7082, reference compound]",iNOS luciferase reporter activity with NF-κB inhibitor,iNOS,decreased reporter activity
same,Effect on the protective effects of CO,[1],abrogated
"C=CC1=C(C)c2cc3[n-]c(cc4nc(cc5[n-]c(cc1n2)c(C)c5CCC(=O)[O-])C(CCC(=O)[O-])=C4C)c(C)c3C=C.[Co+2].[H+].[H+] [CoPP, cobalt protoporphyrin]",Liver injury as measured by serum ALT,"[2]; 5 mg/kg i.p. 24 h before TNF-α/D-gal, ALT 8 hours after, C57BL/6J mice",prevented liver injury
same,Liver injury,"[2]; CoPP with and without L-NIL (4.5 mM drinking water), TNF-α/D-gal 24 hours after CoPP",protected from liver injury
same,Reduction in serum ALT,"[2]; inos−/− mice, CoPP 24 hr before TNF-α/D-gal, 6-8 hr later",> 50%
"CC(=N)NCCCC[C@H](N)C(=O)O.Cl.Cl [L-NIL, L-N6-(1-iminoethyl)-lysine-dihydrochloride, reference compound]","Severity of liver injury, L-NIL alone","[2]; L-NIL 4.5 mM in drinking water, TNF-α/D-gal",did not change the severity of injury
same,"Liver HO-1 expression, L-NIL alone",HO-1,minimal effect
"O=c1onc2cnc3ccccc3n12 [ODQ, 1H-[1,2,4]Oxadiazolo[4,3-a]quinoxalin-1-one, reference compound]",Effect on protection provided by CO,"[3]; ODQ 2-10 μM, 1 hour prior to CO pretreatment",did not reverse the protection
"CC(=O)N[C@H](C(=O)O)C(C)(C)SN=O [SNAP, s-nitroso-N-acetyl-penicillamine, reference compound]","TNF-α/ActD-induced cell death, hmox-1−/− hepatocytes",[3]; [4],did not provide significant protection
same,"TNF-α/ActD-induced cell death, wild type hepatocytes",[3]; [4],significantly protected against cell death
"C=Cc1c2[n-]c(c1C)/C=c1\[n-]/c(c(C)c1C=C)=C\c1[n-]c(c(CCC(=O)O)c1C)/C=c1\[n-]c(c(C)c1CCC(=O)O)=C2.[Sn+4] [SnPP, tin protoporphyrin]",Effect on the protective effects of CO,"[2]; SnPP 50 μmol/kg s.c. 5 hr prior to CO, TNF-α/D-gal",significantly diminished
same,Effect on protection by the NO donor V-PYRRO/NO,[2]; TNF-α/D-gal with SnPP,abrogated
same,Effect of administration in the absence of TNF-α/D-gal,[2]; data not shown,no deleterious or protective effects

# — US9522163B2, “Methods of treating hepatitis” (priority 2002, dated 2016)
